According to patent US11648310B2, “Combination of anti-FGFR4-antibody and bile acid sequestrant” (Daiichi Sankyo Europe GmbH, priority 2015, dated 2023):

Legend:
[1] = tested on: cynomolgus monkeys; details: cynomolgus monkey, in vivo
Text: In order to find ort whether any toxic side effects of FGFR4 inhibition are due to elevated bile acid levels, the effect of co-administering agents which interfere with bile acid levels was examined. […] For reducing bile acid levels, the bile acid sequestrant colestyramine (Quantalan™) was used. Ursodeoxycholic acid (Ursofalk™) was used as a second compound for increasing the transport of bile acids out of the liver. Ursodeoxycholic acid is a hydrophilic bile acid that increases bile acid transporter expression and plasma membrane translocation in the liver, (palliative compounds 1 and 2). The study design included four cynomolgus monkeys (two male, two female) per group. The animals were assigned to the following groups [table] […] Duration and frequency: three administrations at 7-day interval (i.e. day 0, day 7 and day 14). The first day of dosing was designated as day 0. After the last administration, the animals were kept for a treatment-free period of at east 28 days. Method: intravenous injection (slow bolus) using a pump system and a microflex infusion set introduced into a vein after local disinfection with an aqueous solution of ethyl alcohol. After injection, the vein was flushed with sterile physiological saline. Volume administered: 9.52 mL/kg/day. Individual dose volumes were calculated using the latest body weight. Palliative Compounds and Vehicle Route: oral. Frequency: twice daily at 8 hours±1 hour apart. Duration: each day from day 0 to the last day of treatment-free period, i.e. at least 41 days of administrations. Method: naso-gastric intubation (animals are trained to this administration rotate five days before the start of treatment). […] Individual dose volumes were calculated using the latest body weight. […] FGF19 serum levels were determined using quantiquine human FGF19 ELISA from RND according to the manufacturer's instructions. RNA expression of cyno liver and ileum samples for Cyp7A1 (liver) and FGF19 (Ileum) were determined using the High-Capacity RNA-to-cDNA Kit (Applied Biosystems/Life Technologies) followed by subsequent quantitative real-time PCR.

[2] = tested on: cynomolgus monkeys; details: cynomolgus monkey, in vivo; remark: listed apart in the source
Text: In order to find ort whether any toxic side effects of FGFR4 inhibition are due to elevated bile acid levels, the effect of co-administering agents which interfere with bile acid levels was examined. […] For reducing bile acid levels, the bile acid sequestrant colestyramine (Quantalan™) was used. Ursodeoxycholic acid (Ursofalk™) was used as a second compound for increasing the transport of bile acids out of the liver. Ursodeoxycholic acid is a hydrophilic bile acid that increases bile acid transporter expression and plasma membrane translocation in the liver, (palliative compounds 1 and 2).
The study design included four cynomolgus monkeys (two male, two female) per group. The animals were assigned to the following groups
Duration and frequency: three administrations at 7-day interval (i.e. day 0, day 7 and day 14). The first day of dosing was designated as day 0. […]
The test animals were examined for clinical signs, liver enzymes, bile acid levels and FGF19. FGF19 serum levels were determined using quantiquine human FGF19 ELISA from RND according to the manufacturer's instructions. RNA expression of cyno liver and ileum samples for Cyp7A1 (liver) and FGF19 (Ileum) were determined using the High-Capacity RNA-to-cDNA Kit (Applied Biosystems/Life Technologies) followed by subsequent quantitative real-time PCR. […]

## colestyramine [Quantalan™, reference compound]
[1]
  Alanine aminotransferase activity: within the normal range
  Bile acid concentration: within the normal range
  Reversibility of the aspartate aminotransferase effect: reversible
[2]
  Histopathological changes: no histopathological changes
